pIC50: −log10 of the molar value.
Tested on: LEXF JURKAT
Assay: Clonogenic assay, LEXF JURKAT
Assay type: cell-based
Settings: Homo sapiens, Leukemia, T cell leukemia, soft agar, read-out: IC50 (colony formation)
Experimental: The anticancer activity of (R)-2-amino-7-[2-(6-methoxy-pyridin-2-yl)-phenyl]-4-methyl-7,8-dihydro-6H-pyrido[4,3-d]pyrimidin-5-one is evaluated in 30 human tumor xenografts in vitro using a clonogenic assay. In this assay, human cells derived from cancer patients are evaluated for the capacity of (R)-2-amino-7-[2-(6-methoxy-pyridin-2-yl)-phenyl]-4-methyl-7,8-dihydro-6H-pyrido[4,3-d]pyrimidin-5-one to inhibit the formation of 3 dimensional colonies. […] The tumor xenografts which have never been cultured in cell culture plastic dishes are isolated from nude mice. Tumor cell suspensions are prepared and incubated in 24 well plates containing layers of soft agar. Under these conditions a special subpopulation of cells selectively grows to colonies. (R)-2-amino-7-[2-(6-methoxy-pyridin-2-yl)-phenyl]-4-methyl-7,8-dihydro-6H-pyrido[4,3-d]pyrimidin-5one is tested in 6 concentrations up to 1000 nM. The tumor test panel comprises 1 to 10 models of 12 different human tumor types, which were bladder cancer, colon, gastric, non small cell lung (adeno, squamous cell, and large cell), small cell lung, mammary, ovary, and prostate cancer, as well as leukemia, lymphoma, melanoma, and sarcoma. Antitumor effects are recorded as inhibition of colony formation in relation to untreated controls. […]

pIC50: 8.40
SMILES: COc1cccc(-c2ccccc2[C@H]2Cc3nc(N)nc(C)c3C(=O)N2)n1 [(R)-2-amino-7-[2-(6-methoxy-pyridin-2-yl)-phenyl]-4-methyl-7,8-dihydro-6H-pyrido[4,3-d]pyrimidin-5-one]

From US20130045983A1, “HSP90 INHIBITORS FOR THERAPEUTIC TREATMENT” (Novartis AG, priority 2008, published 2013)
